Measured values published in BindingDB's records for doi:10.1021/cb900218c (Case Western Reserve University, 2010).

Legend:
Assay in all cases: colorimetric ATPase assay
[1] = target: Complex of Sliding-clamp-loader large subunit [R175K] and Sliding-clamp-loader small subunit (Enterobacteria phage T4, UniProt P04526, R175K); conditions: pH 7.5; 25 °C
Protocol: (§1) ATPase assay contained 10 mM Mg2+, 1uM 13/20 DNA, 500uM (r)NTP or (d)NTP, 500 nM gp45, and 500 nM gp44/62 in T4 buffer. ATPase activity was measured by monitoring the release of Pi using a malachite green assay (31) or via the hydrolysis of [gamma-32P]-ATP.

[2] = target: Complex of Sliding-clamp-loader large subunit [R175L] and Sliding-clamp-loader small subunit (Enterobacteria phage T4, UniProt P04526, R175L); conditions: pH 7.5; 25 °C
Chain of Complex of Sliding-clamp-loader large subunit [R175L] and Sliding-clamp-loader small subunit (P04526 as listed by the source R175L): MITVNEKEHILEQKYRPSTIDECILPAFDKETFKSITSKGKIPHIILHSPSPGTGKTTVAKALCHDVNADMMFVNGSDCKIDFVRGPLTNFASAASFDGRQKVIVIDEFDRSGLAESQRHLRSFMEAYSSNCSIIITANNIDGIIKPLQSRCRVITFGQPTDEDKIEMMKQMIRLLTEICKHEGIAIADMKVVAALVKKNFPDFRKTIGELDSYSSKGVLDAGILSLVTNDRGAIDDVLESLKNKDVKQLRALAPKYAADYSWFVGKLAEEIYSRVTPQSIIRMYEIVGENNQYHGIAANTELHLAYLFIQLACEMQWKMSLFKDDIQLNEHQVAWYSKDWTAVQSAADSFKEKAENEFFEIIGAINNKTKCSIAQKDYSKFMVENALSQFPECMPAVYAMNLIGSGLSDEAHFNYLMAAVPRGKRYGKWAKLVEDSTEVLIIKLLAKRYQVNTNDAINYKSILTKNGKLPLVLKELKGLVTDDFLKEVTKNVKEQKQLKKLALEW
Protocol: as §1

[3] = target: T1, Sliding-clamp-loader large/small subunit (Enterobacteria phage T4, UniProt P04526+P04527); conditions: pH 7.5; 25 °C
T1 sequence (P04526 whole entry): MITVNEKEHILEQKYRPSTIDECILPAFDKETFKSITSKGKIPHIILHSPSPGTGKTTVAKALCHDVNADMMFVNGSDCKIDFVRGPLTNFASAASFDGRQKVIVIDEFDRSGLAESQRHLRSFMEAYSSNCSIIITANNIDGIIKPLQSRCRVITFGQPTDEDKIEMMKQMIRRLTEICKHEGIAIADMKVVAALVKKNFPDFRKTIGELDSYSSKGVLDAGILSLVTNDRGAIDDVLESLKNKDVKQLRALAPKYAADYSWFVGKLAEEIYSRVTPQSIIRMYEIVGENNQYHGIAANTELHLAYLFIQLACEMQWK
T1 sequence (P04527 whole entry): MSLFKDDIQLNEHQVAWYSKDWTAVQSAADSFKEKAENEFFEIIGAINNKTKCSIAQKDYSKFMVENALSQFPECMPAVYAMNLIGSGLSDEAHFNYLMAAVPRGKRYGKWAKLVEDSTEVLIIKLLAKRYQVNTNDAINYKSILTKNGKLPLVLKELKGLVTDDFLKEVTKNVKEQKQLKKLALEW
Protocol: as §1

[4] = target: DNA polymerase III subunit tau (Escherichia coli, UniProt P06710); conditions: pH 7.5; 37 °C
Chain of DNA polymerase III subunit tau (P06710 whole entry): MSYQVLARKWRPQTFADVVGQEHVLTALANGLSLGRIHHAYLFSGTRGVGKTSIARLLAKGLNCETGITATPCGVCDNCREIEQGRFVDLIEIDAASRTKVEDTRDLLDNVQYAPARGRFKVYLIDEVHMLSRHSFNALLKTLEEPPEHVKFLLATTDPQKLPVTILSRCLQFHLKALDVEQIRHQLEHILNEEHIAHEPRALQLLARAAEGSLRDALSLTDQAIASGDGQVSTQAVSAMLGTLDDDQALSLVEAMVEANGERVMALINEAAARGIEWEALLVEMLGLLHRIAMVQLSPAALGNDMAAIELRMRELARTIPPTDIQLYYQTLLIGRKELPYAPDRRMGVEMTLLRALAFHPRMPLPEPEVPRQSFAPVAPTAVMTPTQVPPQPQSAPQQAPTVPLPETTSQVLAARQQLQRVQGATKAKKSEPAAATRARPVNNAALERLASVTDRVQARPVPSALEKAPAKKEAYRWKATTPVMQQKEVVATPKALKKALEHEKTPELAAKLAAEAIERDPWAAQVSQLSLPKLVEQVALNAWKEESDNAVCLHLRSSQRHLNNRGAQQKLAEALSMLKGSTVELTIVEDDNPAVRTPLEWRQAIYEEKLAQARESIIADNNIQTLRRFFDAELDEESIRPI

Chain of Complex of Sliding-clamp-loader large subunit [R175K] and Sliding-clamp-loader small subunit (P04526 as listed by the source R175K): as the sequence (P04526 as listed by the source R175L) above, with L175K counted along it

SMILES	Ki [1] [µM]	Ki [2] [µM]	Ki [3] [µM]	Ki [4] [µM]
CCc1ccc2c(ccn2[C@H]2C[C@H](O)[C@@H](COP(=O)(O)OP(=O)(O)OP(=O)(O)O)O2)c1 [5-ethyl-indolyl-2'-deoxyriboside triphosphate]	25.2	11	81.5	9
O=P(O)(O)OP(=O)(O)OP(=O)(O)OC[C@H]1O[C@@H](n2ccc3cc(C4=CCCCC4)ccc32)C[C@@H]1O [5-cyclohexene-indolyl-2'-deoxyriboside triphosphate]	–	–	10	11.8
O=[N+]([O-])c1ccc2c(ccn2[C@H]2C[C@H](O)[C@@H](COP(=O)(O)OP(=O)(O)OP(=O)(O)O)O2)c1 [5-nitro-indolyl-2'-deoxyriboside triphosphate]	–	–	–	21.7
O=[N+]([O-])c1ccc2ccn([C@H]3C[C@H](O)[C@@H](COP(=O)(O)OP(=O)(O)OP(=O)(O)O)O3)c2c1 [6-nitro-indolyl-2'-deoxyriboside triphosphate]	9.1	5	5.1	8.1
Nc1ccc2c(ccn2[C@H]2C[C@H](O)[C@@H](COP(=O)(O)OP(=O)(O)OP(=O)(O)O)O2)c1 [5-amino-indolyl-2'-deoxyriboside triphosphate]	–	–	> 200	45
O=[N+]([O-])c1cccc2c1ccn2[C@H]1C[C@H](O)[C@@H](COP(=O)(O)OP(=O)(O)OP(=O)(O)O)O1 [4-nitro-indolyl-2'-deoxyriboside triphosphate]	30.2	41.6	34.2	11.1
O=P(O)(O)OP(=O)(O)OP(=O)(O)OC[C@H]1O[C@@H](n2ccc3cc(C4CCCCC4)ccc32)C[C@@H]1O [5-cyclohexyl-indolyl-2'-deoxyriboside triphosphate]	–	–	47.5	24
Nc1ncnc2c1ncn2C1OC(COP(=O)(O)OP(=O)(O)OP(O)(O)=S)[C@@H](O)[C@H]1O (stereo partly specified) [ATP{gamma}S]	14	33.2	28.9	13
O=P(O)(O)OP(=O)(O)OP(=O)(O)OC[C@H]1O[C@@H](n2ccc3cc(F)ccc32)C[C@@H]1O [5-fluoro-indolyl-2'-deoxyriboside triphosphate]	–	–	> 200	34
C=Cc1ccc2c(ccn2[C@H]2C[C@H](O)[C@@H](COP(=O)(O)OP(=O)(O)OP(=O)(O)O)O2)c1 [5-ethylene-indolyl-2'-deoxyriboside triphosphate]	26.2	34	> 200	30
O=P(O)(O)OP(=O)(O)OP(=O)(O)OC[C@H]1O[C@@H](n2ccc3cc(-c4ccccc4)ccc32)C[C@@H]1O [5-phenyl-indolyl-2'-deoxyriboside triphosphate]	–	–	42	7.5
